Source: patent EP0420914B1, “COSMETIC AND SKIN TREATMENT COMPOSITIONS” (PROCYTE CORPORATION, priority 1988, dated 1994)

Columns and labels:
pig skin = test: Collagen content and angiogenic activity of pig skin biopsies after topical cream; format: in vivo
Protocol: In a typical experiment, a young pig was treated topically with a cream containing glycyl-(3-methyl)-L-histidyl-L-lysine:copper(II) or a placebo cream once a day for 12 days. Punch biopsies (6 mm dia.) were taken on day 0 and day 12. The biopsies were analyzed for total wet weight, alkaline phosphatase, total protein, and hydroxyproline content. Alkaline phosphatase is an enzyme marker for capillary endothelial cells and is an indicator of new angiogenesis. The hydroxyproline is a component of collagen, and increased hydroxyproline content indicates increased collagen content. The punch biopsies were prepared for biochemical analysis, basically by the method of Counts et al. (D. Counts, P. Knighten and G. Hegreberg, J. Invest. Derm. 69:521-26, 1977).
In a first experiment, an increase in alkaline phosphatase activity and hydroxyproline content was detected on day 12 in the biopsies taken from skin treated with glycyl-(3-methyl)-L-histidyl-L-lysine:copper(II) relative to the placebo-treated area.
The results obtained in a second experiment are graphically illustrated in Figure 4. In this experiment, biopsies were taken from the pig on days 0, 10 and 13 and analyzed for alkaline phosphatase activity.

human epidermis = test: Epidermal cell turnover rate by clearance of dansyl chloride; format: in vivo; details: seven female subjects; daily topical cream, upper inner arm; compared with the corresponding untreated site
Protocol: The rate of cell turnover is determined by the number of days for clearance of dansyl chloride from stained stratum. Seven female subjects were used in the study, with an average age of 50.4 (± 3.8) years. Each subject was treated with 3% dansyl chloride in petrolatum on four sites on the upper inner arms. One site on each arm served as an untreated control and the other site as the treated site. Sites were randomized by computer as to left or right and as to proximal or distal areas of the upper arm. Twenty-four hours after occlusion, the sites were uncovered and photographed under ultraviolet light for fluorescence of the dansyl chloride. This photograph was designated as day 1. Photographs were made over the next four weeks until all subjects had completed the study, as determined by the final disappearance of the dansyl dye. The sites were then treated daily with a topical cream containing a representative composition, glycyl-(3-methyl)-L-histidyl-L-lysine:copper(II) or a control cream. The number of days for the total disappearance of the dansyl dye from the cream-treated sites was compared with the corresponding untreated site.

[1] = tested on: dermis, epidermis and subcutis; test: Histological thickness of dermis, epidermis and subcutis in mice after topical creams; format: in vivo, Swiss-Webster female mice; details: creams on days 0, 1, 3, 4 and 5, placebo had returned to naive control level
Protocol: Skin from 31 Swiss-Webster female mice (average age - 18 months) was evaluated histologically for evidence of changes in skin architecture following several applications of placebo- and peptide-containing cream formulations. Measurements were made of dermal, epidermal and subcutis thickness using an eyepiece micrometer at 100X power.
The mice had hair removed by a close clipping, and were treated on days 0, 1, 3, 4 and 5 with either glycyl-L-histidyl-L-lysine:copper(II), or representative derivatives glycyl-(3-methyl)-L-histidyl-L-lysine: copper(II) and glycyl-L-histidyl-L-lysyl-L-valyl-L-phenylalanyl-L-valine: copper(II), or a placebo cream (n = 5/group). Biopsies were performed on individual animals from the groups on days 6, 10, 12 and 14. In addition, eleven naive mice were biopsied on day 0.

dermis = test: Ultrasound evaluation of dermal density after topical cream on the forearm; format: in vivo, human; details: 10 women; cream twice daily for three weeks, volar forearm; score 0 no change to 3 marked change; p = 0.029 versus placebo cream
Protocol: The effect of a representative composition, glycyl-(-3-methyl-L-histidyl-L-lysine:copper(II)(active agent), on the epidermis and dermis was evaluated by ultrasound. Ultrasound technique uses high-frequency sound, at 20 megahertz, to produce an echo signal of the skin. This signal is processed to produce a diagrammatic representation of the skin that is related to the structures of the skin by the strength of the reflected signal.
The topical cream containing glycyl-(3-methyl)-L-histidyl-L-lysine:copper(II) or a control cream was applied twice daily for three weeks to the volar surface of the forearms of 10 female subjects with an average age of 31.7 years, using both the right and left sides in a random fashion for each cream. Subjects were evaluated by ultrasound scans at days 1, 7, 14 and 21.
The dermal density after treatment as measured by ultrasound was evaluated on a scoring system whereby no change = 0, a slight change = 1, a moderate change = 2, and a marked change = 3. In 10 women treated with the cream-plus-active-agent, the average density score was 1.7, while the average score of the placebo-cream-only was 0.7. This difference was significant at a probability of p = 0.029.

subcutaneous fat layer = test: Formation of the subcutaneous fat layer after a single injection in mice (histology); format: in vivo; details: for subcutaneous fat layer at the area of injection: histology of the injected area
Protocol: A single dose of 50 micrograms of glycyl-L-histidyl-L-lysine n-octyl ester:Cu(II) was infiltrated under the skin in eight mice.
In another series of experiments, mice were injected once with glycyl-L-histidyl-L-lysine octyl ester:copper(II) at a dose of 500 micrograms per mouse.
This increase in subcutaneous fat is shown by taking a biopsy sample at day 21 through the area and sectioning for histology slides. […] The injected area is on the right with the adjacent uninjected area on the left of the photograph.
A group of ten mice were injected once with glycyl-L-histidyl-L-lysine decyl ester:copper(II) at a dose of 500 micrograms per mouse. Microscopic examination provided evidence of increased fat cell layer in the area surrounding the injection site.
A group of ten mice were injected once with glycyl-L-histidyl-L-lysine palmityl ester:copper(II) at a dose of 500 micrograms per mouse. Histological sections through the area of injection were similar to those described in Example VI.

skin = test: Topical ointment on human skin, single-subject case reports; format: in vivo; details: person
Protocol: A person had skin covered by a sprinkled pattern of fine reddish spots of microhemorrhages beneath an irritated skin surface.
A person had skin covered with a scaly eczema-like surface.
A person with hair loss and numerous pigmented spots ("aging spots") was treated for 14 days on the top of their head with an ointment (consisting of 94% Unibase and 6% dimethysulfoxide) containing 4 milligrams of GHL-Cu octyl per gram.
A person had irritated skin with numerous pimples.

[2] = topical cream once a day for 12 days, 6 mm punch biopsy, day 12
[3] = injected once, 500 micrograms per mouse

Question: Which results are given for “glycyl-(3-methyl)-L-histidyl-L-lysine:copper(II)”?
Answer: alkaline phosphatase activity, second experiment (Figure 4) (pig skin; biopsies on days 0, 10 and 13, relative to placebo cream-treated areas): increased alkaline phosphatase; Angiogenic Activity (as alkaline phosphatase) (pig skin; [2]): 0.013 ± 0.001 inc A405/min/mg; Collagen Content (as hydroxyproline) (pig skin; [2]): 5.8 ± 0.2 µg/biopsy; increase of average skin turnover rate (human epidermis): 30.0%; epidermal thickness by day 14 [1]: maintained an increased epidermal thickness; average density score (dermal density by ultrasound) (dermis): 1.7

Question: Which “subcutaneous fat layer at the area of injection” value (subcutaneous fat layer; [3]) does the source give for “glycyl-L-histidyl-L-lysine decyl ester:copper(II)” here?
Answer: marked increase in the subcutaneous fat layer

Question: For “glycyl-L-histidyl-L-lysine n-octyl ester:copper(II)”, which “softness and thickness of the skin covering the head” value (skin; treated 14 days on top of head) is on record?
Answer: noticeably softer to the touch and possessed a greater thickness

Question: What about the “number of aging spots” value (skin; treated 14 days on top of head, 4 milligrams per gram in 94% Unibase and 6% dimethysulfoxide, thirty days after start) of the same substance?
Answer: marked reduction in the number of aging spots

Question: What about the “size of the remaining aging spots” value (skin; treated 14 days, thirty days after start) of the same substance?
Answer: reduction in the size of the remaining spots

Question: And the “number and size of the fat cells” value (subcutaneous fat layer; injected once, 500 micrograms per mouse, biopsy at day 21)?
Answer: increase in both the number and size of the fat cells

Question: What about the “increase in the subcutaneous fat layer in the skin near the injection site (fold)” value (subcutaneous fat layer; injected once, 500 micrograms per mouse, biopsy at day 21, versus adjacent uninjected area) of the same substance?
Answer: approximately threefold

Question: What about the “subcutaneous fat layer at the area of injection” value (subcutaneous fat layer; [3]) of the same substance?
Answer: significant increase in the thickness of the subcutaneous fat layer

Question: And the “amounts of subcutaneous fat” value (subcutaneous fat layer; single dose of 50 micrograms infiltrated under the skin, eight mice)?
Answer: Increased amounts of subcutaneous fat were observed

Question: How did the “subcutaneous fat layer at the area of injection” value (subcutaneous fat layer; [3]) turn out when “glycyl-L-histidyl-L-lysine palmityl ester:copper(II)” was run?
Answer: increase in the subcutaneous fat layer

Question: Which “reddish spots of microhemorrhages” value (skin; once daily for 9 days, 4 mg GHL-Cu per gram) does the source give for “glycyl-L-histidyl-L-lysine: copper(II) [GHL-Cu]” here?
Answer: complete clearing of the reddish spots

Question: How did the “epidermal thickness by day 14” value [1] turn out when “glycyl-L-histidyl-L-lysyl-L-valyl-L-phenylalanyl-L-valine: copper(II)” was run?
Answer: maintained an increased epidermal thickness
